Here are results for 6 compounds from US20220257665A1, “APPLICATION OF […] AGENTS TO STEM CELL DERIVED CARDIOMYOCYTES AND USES THEREOF” (priority 2019, published 2022).

Some results are limits rather than exact numbers.

In data set [1] the test system is NPPA. Kind of data set: Nanostring gene expression, hESC-derived cardiomyocytes in monolayer: NPPA. The format is cell-based, human.
Experimental: (§3) Blank medium, addition of solvents as well as cardiomyocytes cultured for 9 days and day 42 were used as control. Beating of cells was assessed after 48 h, 72 h and 96 h. Cells were harvested following incubation for 10 minutes in RLTplus buffer (Qiagen). Changes in gene expression were determined using a custom nanostring gene panel (NanoString Technologies) according to manufacturer's instruction for the following target sequences including 7 housekeeping genes listed in Table 1.
(§4) To study the direct impact of antiarrhythmic drugs on the properties of hESC-derived cardiomyocytes, changes in expression level of selected genes were analyzed that are associated with action potential formation (HCN1, HCN4, KCNA5, KCNE4, KCNH7, KCNJ3, KCNJ5, SCN1B, SCN5A), electrical signal propagation (GJA1, GJA5, GJD3), calcium handling (CACNA1C, CACNA1D, CACNA1G, RYR2, PLN), cardiac maturation (HOPX, MYH7, MYL2, TNN13) and cardiac hypertrophy (NPPA, NPPB) as well as pan-cardiomyocyte markers (NKX2-5, TNNT2, ACTA2).
Data set [2] relates to human induced pluripotent stem cell derived cardiomyocytes (iCell2 cardiomyocytes). Briefly: Ca2+-recordings, beat-to-beat variability (CV), single agents. The format is cell-based. To be noted: 24 h after withdrawal. An excerpt: In order to determine the lasting impact on the electrophysiological properties of the stem-cell derived cardiomyocytes following exposure to anti-arrhythmic agents, we conducted functional cardiomyocyte testing by means of Ca^2+-recordings and determined the arrhythmogenic potential of the stem-cell derived cardiomyocyte population after exposure to the anti-arrhythmic agents. […] (Kazuto Yamazaki et al, Beat-to-Beat Variability in Field Potential Duration in Human Embryonic Stem Cell-Derived Cardiomyocyte Clusters for Assessment of_Arrhythmogenic Risk, and a Case Study of Its Application, Pharmacology & Pharmacy, Vol. 5 No. 1, 2014, pp. 117-128). Of note, all Ca^2+-recordings were conducted at least 24 h after exposure to exclude the known direct effects of the agents via ion channel modulation. […] The cells were delivered as frozen vials and stored until use in liquid nitrogen. All culturing media necessary for thawing and culturing was supplied by the cell supplier. Thawing, plating and cultivation procedures were followed according to the protocol supplied by the manufacturer. Cells were plated directly onto the 384-well Greiner μClear plates coated with fibronectin. […] Media was changed (90%) one day after plating and then every second day and 3 hours before the experiments for the pilot study. […] Treatment was ended by exchanging medium to standard cultivation medium on DIV 6. Recording took place at DIV 7. Experiments were performed at a minimum of n=10 for each compound concentration. For Ca^2+ imaging experiments media was exchanged for the recordings by a HEPES buffered recording solution. A fluorescent Ca^2+ indicator (Cal-520-AM) was applied at a concentration of 2 μM and allowed to accumulate in the cells for 30 min before the buffer was exchanged again to dye-free buffer. Cells were allowed to recover for 10 min at 37° C. in the Hamamatsu FDSS recording system. All experiments were performed at 37° C. The framerate of the camera was set to a minimum of 35 Hz for recording and a binning of 4×4. To assess if the quality was sufficient for the experiments several parameters were reviewed (by-eye inspection), including regularity of the beating, shape and amplitude of the Ca^2+ signals and variability of these parameters between the different wells. Since the cells were spontaneously active, no electrical stimulation was applied. Cells were recorded for 5 min prior to compound application. 200 μM Moxifloxacin was applied after the baseline phase in a single-concentration-per-well fashion, followed by a wash-in phase of 5 min. Fluorescent activity was then recorded for additional 5 min. Moxifloxacin without compound preincubation was included as control (n=18), distributed over multiple plates. […] Coefficient of variation was calculated as where σ denotes the standard deviation and p represents the mean.

For a further data set, the system named is TNNT2. Kind of data set: Nanostring gene expression, hESC-derived cardiomyocytes in monolayer: TNNT2. The format is cell-based, human.
The subject of another data set is NKX2-5. Briefly: Nanostring gene expression, hESC-derived cardiomyocytes in monolayer: NKX2-5. It is filed as cell-based, human.
The conditions of data set [3]: cited from earlier work.
The subject of the next data set is ACTA2. Briefly: Nanostring gene expression, hESC-derived cardiomyocytes in monolayer: ACTA2. It is filed as cell-based, human. To be noted: 5 days exposure to 0.1 μM and 1 μM amiodarone (FIG. 7).
The subject of data set [4] is hESC-derived cardiomyocytes. Kind of data set: Beating of hESC-derived cardiomyocytes after exposure to antiarrhythmic drugs. It is filed as cell-based, human.
Experimental: Dissociated cardiomyocytes were seeded in RPMI1640 medium supplemented with 2% B27 and 0.1% Pen/Strep (Gibco) on laminin-521 or geltrex (Life Technologies)-coated plates at a cell density of 1×10^5/cm^2. […] Blank medium, addition of solvents as well as cardiomyocytes cultured for 9 days and day 42 were used as control. Beating of cells was assessed after 48 h, 72 h and 96 h.
For data set [5], the system named is GJA5. Briefly: Gene expression in 3D suspension aggregates 48 h after removal of the agent: GJA5. The format is cell-based, human. To be noted: 10 μM for about 120 h, measured 48 h after treatment, 3D aggregates. As to the method: (§1) In order to verify the lasting effect and the robustness across different culture systems, we tested the effect of the antiarrhythmic agents on the gene expression profile of the stem-cell derived cardiomyocytes using 3D suspension aggregates and measured the gene expression 48 h after removal of the anti-arrhythmic agents.
(§2) The aggregates were subsequently maintained in 6-well suspension plates on an orbital shaker (75 rpm) at a cell density of about 1.5×10^6 cells/ml in 3 mL medium.

The test system of data set [6] is GJA5. Briefly: Nanostring gene expression, hESC-derived cardiomyocytes in monolayer: GJA5. The format is cell-based, human. The note with it: 0.1 μM and 1 μM, 5 days exposure.
Experimental: as §3, §4
The test system of data set [7] is NPPA. Briefly: Gene expression in 3D suspension aggregates 48 h after removal of the agent: NPPA. It is filed as cell-based, human. To be noted: 10 μM for about 120 h, measured 48 h after treatment, 3D aggregates. As to the method: as §1, §2
The mark [8] stands for this setting: 100 nM, proarrhythmic conditions (moxifloxacine).
The mark [9] stands for this setting: 10 nM, proarrhythmic conditions (moxifloxacine).

Experimental for ACTA2: as §3, §4
Experimental for NKX2-5: as §3, §4
Experimental for TNNT2: as §3, §4

Consider `CCN(CC)CC(=O)Nc1c(C)cccc1C` [Lidocaine, lidocaine], for which, in the data set on NPPA [1] (1 μM, 10 μM and 100 μM lidocaine, 5 days, concentration dependent (FIG. 9)), the NPPA expression result is on record as “decreased”. Moreover, the “reduction of CV (beat-to-beat variability) compared to control” value (“reduction of CV” below) in data set [2] (100 nM, baseline conditions) came to 80.8%; in [2] (setting [8]), 84.7%. Further, the “expression of TNNT2” value with TNNT2 (1 μM, 10 μM and 100 μM lidocaine, 5 days (FIG. 12)) is listed as “without effecting the expression”. Also, the “expression of NKX2-5” value with NKX2-5 (1 μM, 10 μM and 100 μM lidocaine, 5 days (FIG. 11)) was “without effecting the expression”.

Consider `Cc1cccc(C)c1OCC(C)N` (stereo not drawn) [Mexiletine, mexiletine], for which the “typical plasma concentrations in vivo” value in data set [3] was 0.6 to 1.7 µg/mL. Besides, the “reduction of CV” value in data set [2] (100 nM, baseline conditions) was 76.79%; in data set [2] (setting [8]), 77.5%.

Turning to `CC(C)NCC(O)c1ccc(NS(C)(=O)=O)cc1` (stereo not drawn) [Sotalol, sotalol], the “typical plasma concentrations in vivo” value in data set [3] is 1 to 3 µg/mL. Further, the “reduction of CV” value in [2] (100 nM, baseline conditions) amounted to 79.4%; in data set [2] (setting [8]) it was 84.9%.

For `CCCCc1oc2ccccc2c1C(=O)c1cc(I)c(OCCN(CC)CC)c(I)c1` [amiodarone], the “changes of the expression of ACTA2” value in the data set on ACTA2 is “did not result in changes”. In addition, the beating frequency result is given as “clearly reduced” in [4] (1 μM) and “abrogated” in data set [4] (10 μM). Moreover, the “reduction in NPPA expression” value in the data set on NPPA [1] (amiodarone treatment, 5 days exposure to 0.1 μM and 1 μM (FIG. 3)) is “about 3 fold”. For the same compound, the “reduction of CV” value in [2] (10 nM, baseline conditions) worked out at 76.5%; in [2] (setting [9]) it was 83.3%. In addition, in the data set with GJA5 [5], the “increase in GJA5” value is recorded as “about 2.7 fold”. Further, in the data set with TNNT2 (5 days exposure to 0.1 μM and 1 μM amiodarone (FIG. 6)), the “changes of the expression of TNNT2” value is “did not result in changes”. For the same compound, the “changes of the expression of NKX2-5” value in the data set with NKX2-5 (5 days exposure to 0.1 μM and 1 μM amiodarone (FIG. 5)) is listed as “did not result in changes”. Moreover, in the data set on GJA5 [6], the “upregulation of GJA5” value is listed as more than 3 fold. In addition, the “decrease in NPPA” value with NPPA [7] is “about 2 fold”.

In the case of `COCCc1ccc(OCC(O)CNC(C)C)cc1` (stereo not drawn) [metoprolol], the “reduction of CV” value in [2] (10 nM, baseline conditions) came to 79.2%; in data set [2] (setting [9]) it was 83.2%.

For `CC(C)NCC(O)COc1cccc2ccccc12` (stereo not drawn) [propranolol], in data set [3], the “typical plasma concentrations in vivo” value was 0.0021 to 0.3 µg/mL. Further, the “reduction of CV” value in data set [2] (100 nM, baseline conditions) was determined as 73.7%; in [2] (setting [8]), 88.5%.
